For one data set, the target named is T1, hTLR9 (Homo sapiens, UniProt Q9NR96).
T1 sequence (Q9NR96 26-1032): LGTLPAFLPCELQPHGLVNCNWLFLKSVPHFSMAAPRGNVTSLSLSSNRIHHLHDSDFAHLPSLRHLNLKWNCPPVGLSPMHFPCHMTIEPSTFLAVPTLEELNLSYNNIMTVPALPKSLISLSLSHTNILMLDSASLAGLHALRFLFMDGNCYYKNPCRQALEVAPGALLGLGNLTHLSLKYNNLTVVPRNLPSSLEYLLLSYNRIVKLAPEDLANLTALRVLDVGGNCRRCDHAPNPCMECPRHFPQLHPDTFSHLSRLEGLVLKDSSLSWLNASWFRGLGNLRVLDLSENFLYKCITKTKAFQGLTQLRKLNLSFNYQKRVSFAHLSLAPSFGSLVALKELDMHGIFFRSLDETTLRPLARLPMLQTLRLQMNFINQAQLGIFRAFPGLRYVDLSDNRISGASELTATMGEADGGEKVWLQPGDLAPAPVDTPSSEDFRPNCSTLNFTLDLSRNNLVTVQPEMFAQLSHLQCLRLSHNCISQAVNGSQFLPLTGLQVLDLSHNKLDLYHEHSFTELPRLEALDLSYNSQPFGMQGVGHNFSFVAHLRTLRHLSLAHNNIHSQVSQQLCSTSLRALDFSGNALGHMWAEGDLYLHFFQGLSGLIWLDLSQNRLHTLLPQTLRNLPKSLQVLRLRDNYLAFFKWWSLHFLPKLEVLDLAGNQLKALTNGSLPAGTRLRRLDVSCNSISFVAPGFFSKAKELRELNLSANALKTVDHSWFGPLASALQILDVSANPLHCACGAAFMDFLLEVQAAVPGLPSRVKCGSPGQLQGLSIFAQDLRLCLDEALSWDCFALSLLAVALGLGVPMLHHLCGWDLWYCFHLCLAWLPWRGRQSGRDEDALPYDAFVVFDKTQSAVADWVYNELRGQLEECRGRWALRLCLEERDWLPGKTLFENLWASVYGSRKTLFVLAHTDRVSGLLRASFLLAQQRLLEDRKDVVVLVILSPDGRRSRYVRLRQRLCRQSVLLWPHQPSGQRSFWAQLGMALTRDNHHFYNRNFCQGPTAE
In words: HEK293-Blue-hTLR-9 cells assay (SEAP reporter, ODN2006 stimulation). Further details: host or cells: HEK293 (HEK-Blue). It is filed as cell-based. Particulars: HEK293-Blue-hTLR9 cells, ODN2006, 20 hrs; read-out: HEK/hTLR9 IC50. Put shortly: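 HEK293-Blue-hTLR9 cells (250,000-450,000 cells/mL) in DMEM with 10% FBS were treated with serially diluted compound (1% DMSO final) plus ODN2006 for 20 hrs at 37 °C. Supernatant SEAP activity was measured with QUANTI-Blue substrate for 2 hrs at 37 °C, reading absorbance at 620-655 nm.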

The next data set concerns the target T2, hERG channel (Homo sapiens, UniProt Q12809).
T2 construct: expressed in transfected cells; host or cells: CHO (Chinese hamster ovary)
In words: hERG channel inhibition assay (patch-clamp, CHO hERG cells). It is filed as cell-based. Particulars: for IC50 / IC20: CHO hERG cells, whole-cell patch-clamp; for IC20: human, CHO cells stably expressing hERG; for hERG IC20 / TLR7 IC50 / hERG IC20 / TLR9 IC50 / hERG IC20 / TLR8 IC50: safety ratio; for hERG IC20 / TLR7 IC50: TLR7 IC50 of ER compounds from Table 1; for hERG IC20 / TLR9 IC50: TLR9 IC50 of ER compounds from Table 1. Put shortly: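 Whole-cell voltage-clamp on CHO cells stably expressing human hERG, IKhERG evoked at 0.1 Hz. Compound applied at rising concentrations, each held 3-10 min to steady state; current amplitude and kinetics expressed against control taken as 100%.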

T2 sequence (Q12809 whole entry): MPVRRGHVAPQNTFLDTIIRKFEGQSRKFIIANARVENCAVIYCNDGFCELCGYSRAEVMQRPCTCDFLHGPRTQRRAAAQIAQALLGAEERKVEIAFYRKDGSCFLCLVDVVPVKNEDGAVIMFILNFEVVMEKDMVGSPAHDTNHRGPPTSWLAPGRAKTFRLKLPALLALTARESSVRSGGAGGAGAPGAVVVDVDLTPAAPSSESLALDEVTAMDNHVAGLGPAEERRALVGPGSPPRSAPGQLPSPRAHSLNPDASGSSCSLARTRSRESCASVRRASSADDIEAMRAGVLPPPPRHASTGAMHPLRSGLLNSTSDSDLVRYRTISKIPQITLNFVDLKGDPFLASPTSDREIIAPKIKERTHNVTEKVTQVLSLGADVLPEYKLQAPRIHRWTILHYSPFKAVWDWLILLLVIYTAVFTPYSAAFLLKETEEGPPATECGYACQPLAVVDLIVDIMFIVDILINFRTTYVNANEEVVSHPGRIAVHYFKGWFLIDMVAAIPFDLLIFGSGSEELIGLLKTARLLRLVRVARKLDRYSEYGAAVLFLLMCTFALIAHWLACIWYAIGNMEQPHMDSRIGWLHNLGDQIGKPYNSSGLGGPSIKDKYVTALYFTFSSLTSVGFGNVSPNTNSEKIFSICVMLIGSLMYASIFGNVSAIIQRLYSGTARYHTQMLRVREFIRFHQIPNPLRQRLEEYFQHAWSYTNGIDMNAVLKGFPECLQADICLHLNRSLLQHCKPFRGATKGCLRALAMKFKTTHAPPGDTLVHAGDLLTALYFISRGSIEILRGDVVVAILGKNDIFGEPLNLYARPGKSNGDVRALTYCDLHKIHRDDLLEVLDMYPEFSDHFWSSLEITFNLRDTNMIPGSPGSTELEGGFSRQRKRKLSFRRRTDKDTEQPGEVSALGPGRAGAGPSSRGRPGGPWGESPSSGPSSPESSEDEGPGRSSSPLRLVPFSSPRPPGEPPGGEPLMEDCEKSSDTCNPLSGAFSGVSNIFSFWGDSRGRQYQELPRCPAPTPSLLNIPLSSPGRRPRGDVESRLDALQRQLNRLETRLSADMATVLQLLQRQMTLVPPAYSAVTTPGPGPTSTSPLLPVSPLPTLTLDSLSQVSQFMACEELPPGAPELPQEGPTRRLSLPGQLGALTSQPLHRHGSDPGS

Regarding `C[C@@H]1CN(c2ccc(C#N)c3nccnc23)C[C@H](CN2CCN(c3cc4c(cn3)[C@@H](C)NCC4)CC2)O1` (single isomer, unassigned) [Example 86], at hTLR9, the IC50 stood at 0.117 µM.

Take `C[C@@H]1CN(c2ccc(C#N)c3nccnc23)C[C@H](CN2CCN(c3cc4c(cn3)CCN[C@@H]4C)CC2)O1` (single isomer, unassigned) [Example 87]: on hTLR9, the IC50 worked out at 0.097 µM.

`C[C@@H]1CN(c2ccc(C#N)c3nccnc23)C[C@H](CN2CCN(c3cc4c(cn3)CCN[C@H]4C)CC2)O1` (single isomer, unassigned) [Example 88]: the IC50 on hTLR9 came out at 0.073 µM.

As to `[2H]c1nc2c(C#N)ccc(N3C[C@H](CN4CCN(c5cc6c(cn5)[C@H](C)NCC6)CC4)O[C@H](C)C3)c2nc1[2H]` (single isomer, unassigned) [Example 94], at hTLR9, the IC50 was 0.071 µM.

As to `[2H]c1nc2c(C#N)ccc(N3C[C@H](CN4CCN(c5cc6c(cn5)[C@@H](C)NCC6)CC4)O[C@H](C)C3)c2nc1[2H]` (single isomer, unassigned) [Example 95], the IC50 at hTLR9 is 0.103 µM.

Take `[2H]c1nc2c(C#N)ccc(N3C[C@H](CN4CCN(c5ccc6c(n5)CN[C@H]6C)CC4)O[C@H](C)C3)c2nc1[2H]` (single isomer, unassigned) [Example 96]: the IC50 on hTLR9 amounted to 0.116 µM.

For `[2H]c1nc2c(C#N)ccc(N3C[C@H](CN4CCN(c5ccc6c(n5)CN[C@@H]6C)CC4)O[C@H](C)C3)c2nc1[2H]` (single isomer, unassigned) [Example 97], the IC50 at hTLR9 came out at 0.11 µM.

For `[2H]c1ccc2c(N3C[C@H](CN4CCN(c5ccc6c(n5)CN[C@@H]6C)CC4)O[C@H](C)C3)ccc(C#N)c2n1` (single isomer, unassigned) [Example 98], the IC50 at hTLR9 was 0.091 µM.

In the case of `[2H]c1ccc2c(N3C[C@H](CN4CCN(c5ccc6c(n5)CN[C@H]6C)CC4)O[C@H](C)C3)ccc(C#N)c2n1` (single isomer, unassigned) [Example 99], the IC50 on hTLR9 turned out to be 0.069 µM.

As for `C[C@@H]1CN(c2ccc(C#N)c3ncccc23)C[C@H](CN2CCN(c3ccncc3)CC2)O1` [ER-888286, reference compound], on hERG channel, the IC50 stood at 1.3 µM, the 20% effect level (IC20) was put at 0.348 µM, the “hERG IC20 / TLR7 IC50” value is recorded as 0.3 and the “hERG IC20 / TLR9 IC50” value came to 0.2.

`C[C@@H]1CN(c2ccc(C#N)c3ncccc23)C[C@H](CN2CCN(c3ccc4c(c3)CNCC4)CC2)O1` [Example 9, 5-[(2R,6S)-2-methyl-6-[[4-(1,2,3,4-tetrahydroisoquinolin-7-yl)piperazin-1-yl]methyl]morpholin-4-yl]quinoline-8-carbonitrile]: the IC50 on hTLR9 is 0.077 µM. On hERG channel, the IC50 is above 20 µM, it took 6.16 µM to reach the 20% level (IC20), the “hERG IC20 / TLR8 IC50” value turned out to be 410.5 and the “hERG IC20 / TLR7 IC50” value is recorded as 148.0. In addition, on hERG channel, the “hERG IC20 / TLR9 IC50” value is on record as 80.4.

As to `C[C@@H]1CN(c2ccc(C#N)c3ncccc23)C[C@H](CN2CCN(c3cnc4c(c3)CNC4)CC2)O1` [Example 10, 5-[(2S,6R)-2-[[4-(6,7-dihydro-5H-pyrrolo[3,4-b]pyridin-3-yl)piperazin-1-yl]methyl]-6-methyl-morpholin-4-yl] quinoline-8-carbonitrile], the IC50 at hTLR9 came out at 0.053 µM. Further, on hERG channel, the IC50 was above 20 µM, the IC20 was above 10 µM, the “hERG IC20 / TLR8 IC50” value is given as above 442.5 and the “hERG IC20 / TLR7 IC50” value was above 289.9. Moreover, on hERG channel, the “hERG IC20 / TLR9 IC50” value is above 187.3.

(Values after patent publication EP3807270B1, “NOVEL HETEROARYL HETEROCYCLYL COMPOUNDS FOR THE TREATMENT OF AUTOIMMUNE DISEASE” (F. Hoffmann-La Roche AG, priority 2018, dated 2019).)
